Earlier results as cited in patent US10251409B2, “Mixtures of matter” (SYMRISE AG, priority 2013, dated 2019).

Details: compared with sugar

In the case of `C=C1C[C@@]23CC[C@H]4[C@@](C)(CCC[C@@]4(C)C(=O)O[C@@H]4O[C@H](CO)[C@@H](O)[C@H](O)[C@H]4O)[C@@H]2CC[C@]1(O[C@@H]1O[C@H](CO)[C@@H](O)[C@H](O[C@@H]2O[C@H](CO)[C@@H](O)[C@H](O)[C@H]2O)[C@H]1O[C@@H]1O[C@H](CO)[C@@H](O)[C@H](O)[C@H]1O)C3` [rebaudioside A], the “Sweetening power relative to sugar” value is listed as “up to 450 times”.
